Laboratory results taken from patent publication US6969720B2, “Biaryl substituted purine derivatives as potent antiproliferative agents” (AMR Technology, Inc., priority 1999, dated 2005).
“And” between values parts separate entries of the source, which are not always exact repeats. Identical values can stand only once.

Key:
HeLa S-3 cells = test: Inhibition of cell growth (SRB), HeLa cells; assay type: cell-based, human; settings: 2 days of treatment, sulforhodamine B, replicate experiments listed singly
Protocol: D. Measuring the Inhibition of Cell Growth
Growth inhibition (GI50) values were measured with HeLa S-3 cells selected for growth on plastic. […] One day later, a control plate was fixed by addition of TCA to 5%. After five rinses with tap water the plate was air dried and stored at 4° C. Test compounds were added to the remaining plates at 10-fold dilutions between 0.01 and 100 μM. Two days later all plates were fixed as described above. Cells were then stained by the addition of 100 μl per well of 0.4% sulforhodamine B (SRB) in 1% acetic acid for 30 min at 4° C. Wells were then quickly rinsed 5× with acetic acid (1%) and allowed to air dry. The SRB was then solubilized by the addition of 100 μl per well of unbuffered 10 mM Tris base. Dye was quantified by measuring absorbance at 490 nm on a Molecular Devices kinetic microplate reader. Growth at each inhibitor concentration relative to the untreated control was calculated according to the following equation: percent growth=100×(T−To)/(C−To), where T was the average optical density (OD) of the test wells after 2 days of treatment, To was the average OD of the wells in the control plate on day 0 and C was the average OD of untreated wells. Plots of percent growth versus inhibitor concentration were used to determine the GI50.

implanted tumors = test: Efficacy study, implanted tumors; assay type: in vivo, athymic mice; settings: IP
Protocol: The efficacy study consists of three compound-treated groups (six mice/group), a positive control-treated group (six mice), and a vehicle-treated control group of 12 mice. Test compounds were administered IP under the treatment schedules listed above (qd×14 or q4d×3), whereas the positive control agent (Taxol) was administered intravenously (IV) at a dosage level of 15 mg/kg/dose for five consecutive days (qd×5). All agents were administered on the basis of individual animal body weight. Treatment began when the implanted tumors were approximately 100 mg in size (range of 65 to 200 mg). The mice were observed daily for survival. Each tumor was measured by caliper in two dimensions and converted to tumor mass using the formula for a prolate ellipsoid (a×b^2/2) and assuming unit density. Tumor measurements and animal body weights were recorded twice weekly. Antitumor activity was assessed by the delay in tumor growth of the treated groups in comparison to the vehicle-treated control group, partial and complete regressions, and tumor-free survivors.

[1] = tested on: Tumor Cells in Hollow Fibers; test: NCI Hollow Fiber Assay; assay type: in vivo

Row | GI50 (HeLa S-3 cells) | Structure (SMILES) | also measured
1 | > 10000 nM | CC[C@H](CO)Nc1nc(NCc2ccc(-c3cccc(NC(C)=O)c3)cc2)c2ncn(C(C)C)c2n1 [Compound 5] | –
2 | – | CC(C)n1cnc2c(NCc3ccc(-c4ccsc4)cc3)nc(N[C@H]3CC[C@H](N)CC3)nc21 [Compound 12] | T-C (implanted tumors; 0.27 mg/kg, q4d × 3): 1.2 days; T-C (implanted tumors; 0.4 mg/kg, q4d × 3): 0.2 days; T-C (implanted tumors; 0.6 mg/kg, q4d × 3): 0.3 days
3 | 400 nM | CC(C)n1cnc2c(NCc3ccc(-c4ccc(F)c(Cl)c4)cc3)nc(N[C@H]3CC[C@H](N)CC3)nc21 [Compound 14] | –
4 | 600 nM and 300 nM | CC[C@H](CO)Nc1nc(NCc2ccc(-c3ccccn3)cc2)c2ncn(C(C)C)c2n1 [Compound 17] | –
5 | 2000 nM and 400 nM and > 1000 nM | CC[C@H](CO)Nc1nc(NCc2ccc(-c3cccnc3)cc2)c2ncn(C(C)C)c2n1 [Compound 25] | –
6 | 1000 nM and 2000 nM and 900 nM | C=Cc1ccc(-c2ccc(CNc3nc(N[C@H](CC)CO)nc4c3ncn4C(C)C)cc2)cc1 [Compound 33] | –
7 | 6000 nM | CC[C@H](CO)Nc1nc(NCc2ccc(-c3ccc(C(O)CO)cc3)cc2)c2ncn(C(C)C)c2n1 (some centres unmarked) [Compound 34] | –
8 | 8000 nM | CC[C@H](CO)Nc1nc(NCc2ccc(-c3ccc(OC)cc3)cc2)c2ncn(C(C)C)c2n1 [Compound 43] | –
9 | 6000 nM | CC(=O)N[C@H]1CCCC[C@@H]1Nc1nc(NCc2ccc(-c3ccccc3)cc2)c2ncn(C(C)C)c2n1 [Compound 60] | –
10 | – | CC(C)n1cnc2c(NCc3ccc(-c4ccccn4)cc3)nc(N[C@H]3CC[C@H](N)CC3)nc21 [Compound 78] | T-C (implanted tumors; 0.33 mg/kg, qd × 14): 1.8 days; Tumor free/total (implanted tumors; 0.33 mg/kg, qd × 14): 0/6; T-C (implanted tumors; 0.5 mg/kg, qd × 14): 0.8 days; Tumor free/total (implanted tumors; 0.5 mg/kg, qd × 14): 0/6; T-C (implanted tumors; 1.0 mg/kg, q4d × 3): 1.1 days; Tumor free/total (implanted tumors; 1.0 mg/kg, q4d × 3): 0/6
11 | > 100000 nM | CC(C)n1cnc2c(NCc3ccc(-c4ccccc4)cc3)nc(N[C@H]3CCCC[C@H]3NC(=O)Nc3ccccc3)nc21 [Compound 80] | –
12 | 30 nM | CC(C)n1cnc2c(NCc3ccc(-c4ccccc4)nc3)nc(N[C@H]3CC[C@H](N)CC3)nc21 [Compound 86] | –
13 | – | CC(=O)N[C@H]1CC[C@H](Nc2nc(NCc3ccc(-c4ccccc4)nc3)c3ncn(C(C)C)c3n2)CC1 [Compound 87] | T-C (implanted tumors; 10 mg/kg, q4d × 3): 2.9 days; Tumor free/total (implanted tumors; 10 mg/kg, q4d × 3): 0/6; T-C (implanted tumors; 15 mg/kg, q4d × 3): 2.5 days; Tumor free/total (implanted tumors; 15 mg/kg, q4d × 3): 0/6
14 | 80 nM | CC(C)n1cnc2c(NCc3ccc(-c4ccccn4)nc3)nc(N[C@H]3CC[C@H](N)CC3)nc21 [Compound 93] | –
15 | 40 nM and 10 nM | CC(=O)N[C@H]1CC[C@H](Nc2nc(NCc3ccc(-c4cccc(F)c4)cc3)c3ncn(C(C)C)c3n2)CC1 [Compound 96] | –
16 | 5000 nM | CC(=O)N[C@@H](C)CNc1nc(NCc2ccc(-c3ccccc3)cc2)c2ncn(C(C)C)c2n1 [Compound 108] | –

Row | GI50 (HeLa S-3 cells) | Structure (SMILES) | also measured
17 | 30 nM and 10 nM | CC(=O)N[C@H]1CC[C@H](Nc2nc(NCc3ccc(-c4cccc(Cl)c4)cc3)c3ncn(C(C)C)c3n2)CC1 [Compound 110] | –
18 | – | CC(C)n1cnc2c(NCc3ccc(-c4cccs4)cc3)nc(N[C@H]3CC[C@H](N)CC3)nc21 [Compound 111] | melting point: 109 to 110 °C
19 | 2000 nM and 4000 nM and 6000 nM | CC(C)n1cnc2c(NCc3cccnc3)nc(N[C@@H]3CCCC[C@@H]3N)nc21 [Compound 126, reference compound] | –
20 | – | Cn1cnc2c(NCc3ccc(-c4ccccc4)cc3)nc(N[C@H]3CC[C@H](N)CC3)nc21 [Compound 139] | melting point: 182 to 184 °C
21 | 200 nM | CC(=O)N[C@H]1CC[C@H](Nc2nc(NCc3ccc(-c4cc(C)cc(C)c4)cc3)c3ncn(C(C)C)c3n2)CC1 [Compound 150] | –
22 | 400 nM | CC(=O)N[C@H]1CC[C@H](Nc2nc(NCc3ccc(-c4ccc(C)s4)cc3)c3ncn(C(C)C)c3n2)CC1 [Compound 158] | melting point: 225 to 230 °C
23 | 300 nM | Cc1csc(-c2ccc(CNc3nc(N[C@H]4CC[C@H](N)CC4)nc4c3ncn4C(C)C)cc2)c1 [Compound 160] | –
24 | 400 nM | CC(=O)N[C@H]1CC[C@H](Nc2nc(NCc3ccc(-c4cc(C)cs4)cc3)c3ncn(C(C)C)c3n2)CC1 [Compound 161] | melting point: 222 to 223 °C
25 | 300 nM | CCCN[C@H]1CC[C@H](Nc2nc(NCc3ccc(-c4cc(C)cs4)cc3)c3ncn(C(C)C)c3n2)CC1 [Compound 162] | –
26 | 100 nM | CC(C)n1cnc2c(NCc3ccc(-c4ccoc4)cc3)nc(N[C@H]3CC[C@H](N)CC3)nc21 [Compound 164] | –
27 | – | CC(=O)N[C@H]1CC[C@H](Nc2nc(NCc3ccc(-c4ccoc4)cc3)c3ncn(C(C)C)c3n2)CC1 [Compound 165] | melting point: 241 to 243 °C
28 | 4000 nM | CCCN(CCC)CCNc1nc(NCc2ccc(-c3ccccc3)cc2)c2ncn(C(C)C)c2n1 [Compound 210] | –
29 | 3000 nM | CC(=O)NCCCNc1nc(NCc2ccc(-c3ccccc3)cc2)c2ncn(C(C)C)c2n1 [Compound 212] | –
30 | 3000 nM | CCCNCCCCNc1nc(NCc2ccc(-c3ccccc3)cc2)c2ncn(C(C)C)c2n1 [Compound 215] | –
31 | 40 nM and 100 nM | CC(=O)N[C@H]1CC[C@H](Nc2nc(NCc3ccc(-c4cccc(CN)c4)cc3)c3ncn(C(C)C)c3n2)CC1 [Compound 223] | –

Row | Structure (SMILES) | GI50 (HeLa S-3 cells) | also measured
32 | CC(=O)N[C@H]1CC[C@H](Nc2nc(NCc3ccc(-c4ccccn4)nc3)c3ncn(C(C)C)c3n2)CC1 [Compound 94] | 70 nM | Cell Types Killed [1]: COLO205, OVCAR-3, H522
33 | CC(C)n1cnc2c(NCc3ccc(-c4cccnc4)cc3)nc(N[C@H]3CC[C@H](N)CC3)nc21 [Compound 103] | 30 nM and 8 nM and 20 nM and 10 nM | Cell Types Killed [1]: OVCAR 3, OVCAR 5,
